Tests used:
Type in all cases: in vivo
[1] = test system: Cabbage Looper (Trichoplusia ni, TRIPNI); assay: Bioassay on Cabbage Looper (CL), 128-well diet tray assay; settings: 168 h, 50 μg/cm^2 on artificial diet, second instar larvae, 25° C., five to seven days, average of eight wells, read-out: CL rating, % Control (or Mortality)
Description: (§1) Certain molecules disclosed in this document were tested against BAW and CL using procedures described in the following examples. In the reporting of the results, the “BAW & CL Rating Table” was used (See Table Section).
Bioassays on CL were conducted using a 128-well diet tray assay. One to five second instar CL larvae were placed in each well (3 mL) of the diet tray that had been previously filled with 1 mL of artificial diet to which 50 μg/cm^2 of the test molecule (dissolved in 50 μL of 90:10 acetone-water mixture) had been applied (to each of eight wells) and then allowed to dry. Trays were covered with a clear self-adhesive cover, vented to allow gas exchange, and held at 25° C., 14:10 light-dark for five to seven days. Percent mortality was recorded for the larvae in each well; activity in the eight wells was then averaged. The results are indicated in the table entitled “Table ABC: Biological Results” (See Table Section).

[2] = test system: Beet Armyworm (Spodoptera exigua, LAPHEG); assay: Bioassay on Beet Armyworm (BAW), 128-well diet tray assay; settings: 168 h, 50 μg/cm^2 on artificial diet, second instar larvae, 25° C., five to seven days, average of eight wells, read-out: BAW rating, % Control (or Mortality)
Description: as §1
Bioassays on BAW were conducted using a 128-well diet tray assay. One to five second instar BAW larvae were placed in each well (3 mL) of the diet tray that had been previously filled with 1 mL of artificial diet to which 50 μg/cm^2 of the test molecule (dissolved in 50 μL of 90:10 acetone-water mixture) had been applied (to each of eight wells) and then allowed to dry. Trays were covered with a clear self-adhesive cover, vented to allow gas exchange, and held at 25° C., 14:10 light-dark for five to seven days. Percent mortality was recorded for the larvae in each well; activity in the eight wells was then averaged. The results are indicated in the table entitled “Table ABC: Biological Results” (See Table Section).

[3] = test system: Yellow Fever Mosquito (Aedes aegypti, AEDSAE); assay: Bioassay on Yellow Fever Mosquito (YFM) larvae, 96-well plate; settings: 4000 ppm DMSO master solution diluted, about 1 day-old larvae, room temperature, scored after 3 days
Description: Certain molecules disclosed in this document were tested against YFM using procedures described in the following paragraph. In the reporting of the results, the “YFM Rating Table” was used (See Table Section).
Master plates containing 400 μg of a molecule dissolved in 100 μL of dimethyl sulfoxide (DMSO) (equivalent to a 4000 ppm solution) are used. A master plate of assembled molecules contains 15 μL per well. To this plate, 135 μL of a 90:10 water/acetone mixture is added to each well. A robot (Biomek® NXP Laboratory Automation Workstation) is programmed to dispense 15 μL aspirations from the master plate into an empty 96-well shallow plate (“daughter” plate). There are 6 reps (“daughter” plates) created per master. The created “daughter” plates are then immediately infested with YFM larvae.
The day before plates are to be treated, mosquito eggs are placed in Millipore water containing liver powder to begin hatching (4 g into 400 mL). After the “daughter” plates are created using the robot, they are infested with 220 μL of the liver powder/larval mosquito mixture (about 1 day-old larvae). After plates are infested with mosquito larvae, a non-evaporative lid is used to cover the plate to reduce drying. Plates are held at room temperature for 3 days prior to grading. After 3 days, each well is observed and scored based on mortality. The results are indicated in the table entitled “Table ABC: Biological Results” (See Table Section).

SMILES | mortality at 50 µg/cm2 [1] [%] | mortality at 50 µg/cm2 [2] [%] | YFM rating, % Control (or Mortality) [3]
N/C(=N\C(=O)Nc1ccc(-c2ncn(-c3ccc(OC(F)(F)F)cc3)n2)cc1)Nc1ccccc1-c1ccccc1 [F1, (1E)-1-[Amino-(2-phenylanilino)methylene]-3-[4-[1-[4-(trifluoromethoxy)phenyl]-1H-1,2,4-triazol-3-yl]phenyl]urea] | 50 to 100 | 50 to 100 | A (80-100)
N/C(=N\C(=O)Nc1ccc(-c2ncn(-c3ccc(OC(F)(F)F)cc3)n2)cc1)Nc1ccccc1Cc1ccccc1 [F2, (1E)-1-[Amino-(2-benzylanilino)methylene]-3-[4-[1-[4-(trifluoromethoxy)phenyl]-1H-1,2,4-triazol-3-yl]phenyl]urea] | 50 to 100 | 50 to 100 | A (80-100)
CCc1ccccc1N/C(N)=N/C(=O)Nc1ccc(-c2ncn(-c3ccc(OC(F)(F)F)cc3)n2)cc1 [F3, (1E)-1-[Amino-(2-ethylanilino)methylene]-3-[4-[1-[4-(trifluoromethoxy)phenyl]-1H-1,2,4-triazol-3-yl]phenyl]urea] | 50 to 100 | 50 to 100 | A (80-100)
N/C(=N\C(=O)Nc1ccc(-c2ncn(-c3ccc(OC(F)(F)F)cc3)n2)cc1)Nc1ccccc1 [F4, (1E)-1-[amino(anilino)methylene]-3-[4-[1-[4-(trifluoromethoxy)phenyl]-1H-1,2,4-triazol-3-yl]phenyl]urea] | 50 to 100 | 50 to 100 | A (80-100)
Cc1ccccc1N/C(N)=N/C(=O)Nc1ccc(-c2ncn(-c3ccc(OC(F)(F)F)cc3)n2)cc1 [F5, (1E)-1-[Amino-(2-methylanilino)methylene]-3-[4-[1-[4-(trifluoromethoxy)phenyl]-1H-1,2,4-triazol-3-yl]phenyl]urea] | 50 to 100 | 50 to 100 | A (80-100)
CCCc1ccccc1N/C(N)=N/C(=O)Nc1ccc(-c2ncn(-c3ccc(OC(F)(F)F)cc3)n2)cc1 [F6, (1E)-1-[Amino-(2-propylanilino)methylene]-3-[4-[1-[4-(trifluoromethoxy)phenyl]-1H-1,2,4-triazol-3-yl]phenyl]urea] | 50 to 100 | 50 to 100 | A (80-100)
Cc1ccc(C)c(N/C(N)=N/C(=O)Nc2ccc(-c3ncn(-c4ccc(OC(F)(F)F)cc4)n3)cc2)c1 [F7, (1E)-1-[Amino-(2,5-dimethylanilino)methylene]-3-[4-[1-[4-(trifluoromethoxy)phenyl]-1H-1,2,4-triazol-3-yl]phenyl]urea] | 50 to 100 | 50 to 100 | A (80-100)
Cc1ccc(N/C(N)=N/C(=O)Nc2ccc(-c3ncn(-c4ccc(OC(F)(F)F)cc4)n3)cc2)c(C)c1 [F8, (1E)-1-[Amino-(2,4-dimethylanilino)methylene]-3-[4-[1-[4-(trifluoromethoxy)phenyl]-1H-1,2,4-triazol-3-yl]phenyl]urea] | 50 to 100 | 50 to 100 | A (80-100)
COc1ccc(N/C(N)=N/C(=O)Nc2ccc(-c3ncn(-c4ccc(OC(F)(F)F)cc4)n3)cc2)c(C)c1 [F9, (1E)-1-[Amino-(4-methoxy-2-methyl-anilino)methylene]-3-[4-[1-[4-(trifluoromethoxy)phenyl]-1H-1,2,4-triazol-3-yl]phenyl]urea] | 50 to 100 | 50 to 100 | A (80-100)
CC(C)c1ccccc1N/C(N)=N/C(=O)Nc1ccc(-c2ncn(-c3ccc(OC(F)(F)F)cc3)n2)cc1 [F10, (1E)-1-[Amino-(2-isopropylanilino)methylene]-3-[4-[1-[4-(trifluoromethoxy)phenyl]-1H-1,2,4-triazol-3-yl]phenyl]urea] | 50 to 100 | 50 to 100 | A (80-100)
Cc1cccc(C)c1N/C(N)=N/C(=O)Nc1ccc(-c2ncn(-c3ccc(OC(F)(F)F)cc3)n2)cc1 [F11, (1E)-1-[amino-(2,6-dimethylanilino)methylene]-3-[4-[1-[4-(trifluoromethoxy)phenyl]-1H-1,2,4-triazol-3-yl]phenyl]urea] |  | 50 to 100 | 
Cc1cc(Cl)ccc1N1CCN/C1=N\C(=O)Nc1ccc(-c2ncn(-c3ccc(OC(F)(F)F)cc3)n2)cc1 [F12, (E)-1-(1-(4-Chloro-2-methylphenyl)imidazolidin-2-ylidene)-3-(4-(1-(4-(trifluoromethoxy)phenyl)-1H-1,2,4-triazol-3-yl)phenyl)urea] | 50 to 100 | 0 to 50 | D (No activity noticed in this bioassay)
Cc1ccc(F)cc1N1CCN/C1=N\C(=O)Nc1ccc(-c2ncn(-c3ccc(OC(F)(F)F)cc3)n2)cc1 [F13, (E)-1-(1-(5-Fluoro-2-methylphenyl)imidazolidin-2-ylidene)-3-(4-(1-(4-(trifluoromethoxy)phenyl)-1H-1,2,4-triazol-3-yl)phenyl)urea] | 50 to 100 | 50 to 100 | D (No activity noticed in this bioassay)
CCc1ccccc1N1CCN/C1=N\C(=O)Nc1ccc(-c2ncn(-c3ccc(OC(F)(F)F)cc3)n2)cc1 [F14, (E)-1-(1-(2-Ethylphenyl)imidazolidin-2-ylidene)-3-(4-(1-(4-(trifluoromethoxy)phenyl)-1H-1,2,4-triazol-3-yl)phenyl)urea] | 50 to 100 | 50 to 100 | A (80-100)
Cc1ccc(N2CCN/C2=N\C(=O)Nc2ccc(-c3ncn(-c4ccc(OC(F)(F)F)cc4)n3)cc2)c(C)c1 [F15, (E)-1-(1-(2.4-dimethylphenyl)imidazolidin-2-ylidene)-3-(4-(1-(4-(trifluoromethoxy)phenyl)-1H-1,2,4-triazol-3-yl)phenyl)urea] | 50 to 100 | 50 to 100 | A (80-100)
O=C(/N=C1\NCCN1c1ccccc1)Nc1ccc(-c2ncn(-c3ccc(OC(F)(F)F)cc3)n2)cc1 [F16, (E)-1-(1-Phenylimidazolidin-2-ylidene)-3-(4-(1-(4-(trifluoromethoxy)phenyl)-1H-1,2,4-triazol-3-yl)phenyl)urea] | 50 to 100 | 50 to 100 | A (80-100)
Cc1cc(C)c(N2CCN/C2=N\C(=O)Nc2ccc(-c3ncn(-c4ccc(OC(F)(F)F)cc4)n3)cc2)c(C)c1 [F17, (E)-1-(1-Mesitylimidazolidin-2-ylidene)-3-(4-(1-(4-(trifluoromethoxy)phenyl)-1H-1,2,4-triazol-3-yl)phenyl)urea] | 50 to 100 | 50 to 100 | A (80-100)
COc1ccccc1N1CCN/C1=N\C(=O)Nc1ccc(-c2ncn(-c3ccc(OC(F)(F)F)cc3)n2)cc1 [F18, (E)-1-(1-(2-Methoxyphenyl)imidazolidin-2-ylidene)-3-(4-(1-(4-(trifluoromethoxy)phenyl)-1H-1,2,4-triazol-3-yl)phenyl)urea] | 50 to 100 | 50 to 100 | A (80-100)
O=C(/N=C1\NCCN1c1ccccc1OC(F)(F)F)Nc1ccc(-c2ncn(-c3ccc(OC(F)(F)F)cc3)n2)cc1 [F19, (E)-1-(4-(1-(4-(Trifluoromethoxy)phenyl)-1H-1,2,4-triazol-3-yl)phenyl)-3-(1-(2-(trifluoromethoxy)phenyl)imidazolidin-2-ylidene)urea] | 50 to 100 | 0 to 50 | D (No activity noticed in this bioassay)

Source: patent US9758491B2, “Molecules having pesticidal utility, and intermediates, compositions, and processes, related thereto” (priority 2015, dated 2017)
